{"source": "patent US6355785B1", "about": "“Guanosine-rich oligonucleotide integrase inhibitors” (Aronex Pharmaceuticals, Inc., priority 1993, dated 2002)", "key": {"[1]": {"tested_on": "HIV-1DV", "assay": "HIV-1 p24 production in SUP T1 cells", "assay_type": "cell-based", "settings": "Human immunodeficiency virus 1, 96 h; SUP T1, HIV-1DV, four days"}, "[2]": {"tested_on": "CD4- and gp120-mediated cell fusion", "assay": "cells", "assay_type": "cell-based"}, "[3]": {"tested_on": "Sindbis virus"}, "[4]": {"tested_on": "Semliki forest virus"}, "[5]": {"settings": "cynomolgus monkey, up to 236 ug/mL"}, "[6]": {"tested_on": "HIV-1 strains (SKI, RF, DV, IIIB, ADP/141)", "settings": "previously reported by Ojwang et al.; cited from earlier work"}, "[7]": {"molecular_target": "recombinant HIV-1 integrase (wild-type) (Human immunodeficiency virus type 1 group M subtype B, UniProt P12497)", "settings": "previously reported by Ojwang et al., cited from earlier work"}, "[8]": {"tested_on": "HIV-2 (ROD, EHO)", "assay": "HIV-2 infection assay in MT4 cells", "assay_type": "cell-based", "settings": "read-out: IC50 virus production"}, "[9]": {"tested_on": "HIV-1DV", "assay": "Acute infection of primary human macrophages (intracellular p24)", "assay_type": "cell-based"}, "[10]": {"molecular_target": "T1, FIV integrase (Feline immunodeficiency virus, UniProt P16088)", "T1 construct": "Purified recombinant wild-type FIV and SIV integrases were generous gifts; purchased gift of Dr. S. Chow (UCLA) (not bought)", "assay": "FIV integrase 3′-processing assay", "assay_type": "biochemical"}, "[11]": {"molecular_target": "HIV-1 integrase (wild-type and deletion mutants) (Human immunodeficiency virus type 1 group M subtype B, UniProt P12497)", "assay": "UV crosslinking DNA binding experiments", "experimental": "UV crosslinking experiments. The method used has been described by Engleman et al. Engelman, et al., J. Virol. 68, 5911-5917 (1994). Briefly, integrase (at the indicated concentration) was incubated with substrate in reaction buffer as above for 5 minutes at 30° C. Reactions were then irradiated with a UV transilluminator (254 nm wavelength) from 3 cm above (2.4 mW/cm2) at room temperature for 10 minutes. An equal volume (16 μL) of 2X SDS-PAGE buffer (100 mM Tris, pH 6.8, 4% 2-mercaptoethanol, 4% SDS, 0.2% bromophenol blue, 20% glycerol) was added to each reaction. Twenty μL aliquots were heated at 95° C. for 3 minutes prior to loading on a 12% or 18% SDS-polyacrylamide gel. The gel was run at 120 V for 1.5 hours, dried, and exposed in a Phosphorlmager cassette. […] For the competition experiments (FIG. 29), integrase (200 nM) was preincubated with either the radiolabeled viral DNA substrate (20 nM) or T30177 (20 nM) for 5 minutes at 30° C. prior to the addition of competitor DNA at the indicated concentration."}, "[12]": {"parameters": "species or system cynomolgus monkeys", "settings": "cynomolgus monkey, in vivo", "experimental": "Dosing. Twelve experimentally naive cynomolgus monkeys were assigned to four groups of three animals each. Prior to dosing, each animal was lightly sedated with a combination of ketamine (1 0 mg/kg) and diazepam (0.5 mg/kg), and a catheter was introduced into the femoral artery for recording central arterial pressure. Monkeys were given a single intravenous infusion of 5, 20, or 50 mg AR177/kg or saline over ten minutes through a cephalic vein catheter using a Harvard infusion pump. […] The concentration of AR177 in dosing solutions was confirmed post experiment by absorbance at 280 nm on a spectrophotometer. […] Electrocardiograms (ECGs), central pressure, and heart rate were recorded continuously for 120 minutes following the initiation of doing. […]\nSerum chemistry parameters. The following were determined: sodium, potassium, chloride, carbon dioxide, total bilirubin, direct bilirubin, indirect bilirubin, alkaline phosphatase, lactate dehydrogenase, aspartate aminotransferase, alanine aminotransferase, gamma-glutamyltransferase, calcium, phosphorus, glucose, urea nitrogen, creatinine, uric acid total protein, albumin, globulin, cholesterol and triglycerides. The samples were analyzed at Sierra Nevada Laboratories (Reno, Nev.)."}, "[13]": {"parameters": "species or system cynomolgus monkeys", "settings": "cynomolgus monkey, in vivo", "experimental": "Serum chemistry parameters. Serum chemistry was determined pre-study, on day 24 (one day after the 12th dose), and on day 37 in the recovery monkeys. The following were determined sodium, potassium, chloride, carbon dioxide, total bilirubin, direct bilirubin, indirect bilirubin alkaline phosphatase, lactate dehydrogenase, aspartate aminotransferase, alanine aminotransferase, gammaglutamyltransferase, calcium, phosphorus, glucose, urea nitrogen, creatinine, uric acid total protein, albumin, globulin, cholesterol and triglycerides. Serum chemistry was determined at Sierra Nevada Laboratories (Reno, Nev.).", "remark": "listed apart in the source"}, "[14]": {"tested_on": "RSV (A2)"}, "[15]": {"tested_on": "Coxsackie virus (B4)"}}, "note": "Where two headings read alike, the source gives them in different places."}
{"compound": "Cc1cn([C@H]2C[C@H](N=[N+]=[N-])[C@@H](CO)O2)c(=O)[nH]c1=O", "note": "[AZT, 3′-azido-3′-deoxythymidine]", "values": [{"measurement": "IC50", "setting": "[1]", "value": 400, "unit": "nM"}]}
{"compound": "5′-gtggtgggtgggtgggt-3′ [T30177] (GTGGTGGGTGGGTGGGT; phosphorothioate termini, further chemistry not given here)", "values": [{"measurement": "fusion IC50 relative to virus infection assay IC50", "setting": "[2]", "value": "approximately 100 fold"}, {"measurement": "IC50", "setting": "[2]; read-out: IC50 CD4- and gp120-mediated cell fusion", "value": 1000, "unit": "nM"}, {"measurement": "IC50 virus-induced cytopathogenicity", "setting": "[3]; Sindbis virus", "value": ">200", "unit": "µg/mL"}, {"measurement": "MCC minimum concentration altering normal cell morphology", "setting": "[3]; Sindbis virus assay", "value": "≧200 μg/mL"}, {"measurement": "IC50 virus-induced cytopathogenicity", "setting": "[4]; Semliki forest virus", "value": ">200", "unit": "µg/mL"}, {"measurement": "MCC minimum concentration altering normal cell morphology", "setting": "[4]; Semliki forest virus assay", "value": "≧200 μg/mL"}, {"measurement": "complement CH50", "setting": "[5]", "value": "no effect"}, {"measurement": "IC50", "setting": "[6]", "value": 75, "unit": "nM"}, {"measurement": "IC50", "setting": "[7]; read-out: IC50 3′-PROC", "value": 79, "unit": "nM"}, {"measurement": "IC50", "setting": "[7]; read-out: IC50 STR · TRA", "value": 49, "unit": "nM"}]}
{"compound": "5′-gtggtgggtgggtgggt-3′ (GTGGTGGGTGGGTGGGT; phosphorothioate termini, further chemistry not given here) [T30177]", "values": [{"measurement": "IC50", "setting": "[8]; HIV-2EHO", "value": "5980 ± 1050", "unit": "nM"}, {"measurement": "IC50", "setting": "[8]; HIV-2ROD", "value": "27500 ± 11600", "unit": "nM"}, {"measurement": "HIV-1 replication in macrophages", "setting": "[9]", "value": "significantly inhibited HIV-1 replication in macrophages"}, {"measurement": "IC50", "setting": "[10]", "value": 175, "unit": "nM"}, {"measurement": "competition of integrase complex by competitor DNA", "setting": "[11]; competitor in 500-fold excess", "value": "could not be competed off"}, {"measurement": "inhibition of integrase binding to radiolabeled U5 DNA substrate", "setting": "[11]; enzyme preincubated with oligo", "value": "inhibited"}, {"measurement": "concentration required for DNA-protein complex formation", "setting": "[11]; radiolabeled T30177", "value": "~20", "unit": "nM"}, {"measurement": "binding of IN1-55 (zinc finger domain)", "setting": "[11]; zinc alone", "value": "able to bind"}, {"measurement": "serum chemistry parameters", "setting": "[12]", "value": "no changes"}, {"measurement": "serum chemistry or urinalysis parameters", "setting": "[13]", "value": "no treatment-related changes"}, {"measurement": "IC50 virus-induced cytopathogenicity", "setting": "[14]; RSV (A2)", "value": ">200", "unit": "µg/mL"}, {"measurement": "MCC minimum concentration altering normal cell morphology", "setting": "[14]; RSV (A2) assay", "value": ">400", "unit": "μg/mL"}, {"measurement": "IC50 virus-induced cytopathogenicity", "setting": "[15]; Coxsackie virus (B4)", "value": ">200", "unit": "µg/mL"}, {"measurement": "MCC minimum concentration altering normal cell morphology", "setting": "[15]; Coxsackie virus (B4) assay", "value": "≧400 μg/mL"}]}
